# Laboratory results taken from PubChem BioAssay (NCI).
#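 Method: 48-hour compound exposure of cells in 96-well plates, five concentrations, linear interpolation of endpoints. Definition used: TGI = concentration required for complete inhibition of growth.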
# Columns and labels:
# Experiment in all cases: NCI-60 cell line screen, 48 h
# [1] = test system: SF-539 CNS
# [2] = test system: MALME-3M melanoma
# [3] = test system: MDA-N
# [4] = test system: SF-268 CNS
# [5] = test system: M14 melanoma
# [6] = test system: 786-0 renal
# [7] = test system: SNB-19 CNS
# [8] = test system: SW-620 colon
# [9] = test system: NCI/ADR-RES ovarian
# [10] = test system: UACC-62 melanoma
# [11] = test system: A498 renal
# [12] = test system: SN12C renal
# [13] = test system: HCC-2998 colon
# [14] = test system: LOX IMVI melanoma
# [15] = test system: U251 CNS
# [16] = test system: OVCAR-8 ovarian
# [17] = test system: NCI-H522 lung
# [18] = test system: PC-3 prostate
# [19] = test system: CCRF-CEM leukemia
# [20] = test system: UO-31 renal
# [21] = test system: OVCAR-5 ovarian
# [22] = test system: HCT-15 colon
# [23] = test system: HOP-92 NSCLC
# [24] = test system: A549 NSCLC
# [25] = test system: UACC-257 melanoma
# [26] = test system: CAKI-1 renal
# [27] = test system: IGROV1 ovarian
# [28] = test system: ACHN renal
# [29] = test system: SF-295 CNS
# [30] = test system: RXF 393 renal
# [31] = test system: EKVX NSCLC
# [32] = test system: MOLT-4 leukemia
# [33] = test system: MDA-MB-231 breast
# [34] = test system: HT29 colon
# [35] = test system: K-562 leukemia
# [36] = test system: SK-MEL-2 melanoma
# [37] = test system: RPMI-8226 leukemia
# [38] = test system: TK-10 renal
# [39] = test system: COLO 205 colon
# [40] = test system: OVCAR-3 ovarian
# [41] = test system: MCF7 breast
# [42] = test system: DU-145 prostate
# [43] = test system: MDA-MB-435
# [44] = test system: HOP-62 NSCLC
# [45] = test system: NCI-H226 lung
# [46] = test system: SK-OV-3 ovarian
# [47] = test system: BT-549 breast
# [48] = test system: SK-MEL-28 melanoma
# [49] = test system: NCI-H23 lung
# [50] = test system: SR leukemia
# [51] = test system: T-47D breast
# [52] = test system: HCT-116 colon
# [53] = test system: SK-MEL-5 melanoma
# [54] = test system: SNB-75 CNS
# [55] = test system: KM12 colon
# [56] = test system: NCI-H460 lung
# [57] = test system: OVCAR-4 ovarian
# [58] = test system: HS 578T breast
# [59] = test system: HL-60(TB) leukemia
compound,measurement,setting,value
N#CC1=C2SCCN2C(=O)C(C#N)C12CCCCC2 (stereo unspecified),TGI,[1],> 100 µM
same,TGI,[2],> 100 µM
same,TGI,[3],> 100 µM
same,TGI,[4],> 100 µM
same,TGI,[5],> 100 µM
same,TGI,[6],> 100 µM
same,TGI,[7],> 100 µM
same,TGI,[8],> 100 µM
same,TGI,[9],> 100 µM
same,TGI,[10],> 100 µM
same,TGI,[11],> 100 µM
same,TGI,[12],> 100 µM
same,TGI,[13],> 100 µM
same,TGI,[14],> 100 µM
same,TGI,[15],> 100 µM
same,TGI,[16],> 100 µM
same,TGI,[17],> 100 µM
same,TGI,[18],> 100 µM
same,TGI,[19],> 100 µM
same,TGI,[20],> 100 µM
same,TGI,[21],> 100 µM
same,TGI,[22],> 100 µM
same,TGI,[23],> 100 µM
same,TGI,[24],> 100 µM
same,TGI,[25],> 100 µM
same,TGI,[26],> 100 µM
same,TGI,[27],> 100 µM
same,TGI,[28],> 100 µM
same,TGI,[29],> 100 µM
same,TGI,[30],> 100 µM
same,TGI,[31],> 100 µM
same,TGI,[32],> 100 µM
same,TGI,[33],> 100 µM
same,TGI,[34],> 100 µM
same,TGI,[35],> 100 µM
same,TGI,[36],> 100 µM
same,TGI,[37],> 100 µM
same,TGI,[38],> 100 µM
same,TGI,[39],> 100 µM
same,TGI,[40],> 100 µM
same,TGI,[41],> 100 µM
same,TGI,[42],> 100 µM
same,TGI,[43],> 100 µM
same,TGI,[44],> 100 µM
same,TGI,[45],> 100 µM
same,TGI,[46],> 100 µM
same,TGI,[47],> 100 µM
same,TGI,[48],> 100 µM
same,TGI,[49],> 100 µM
same,TGI,[50],> 100 µM
same,TGI,[51],> 100 µM
same,TGI,[52],> 100 µM
same,TGI,[53],> 100 µM
same,TGI,[54],> 100 µM
same,TGI,[55],> 100 µM
same,TGI,[56],> 100 µM
same,TGI,[57],> 100 µM
C/C(N)=C/C(=O)c1[nH]c(C(=O)O)cc1C1CCN(Cc2ccccc2)C1=O (stereo unspecified),TGI,[2],50.2 µM
same,TGI,[3],69.7 µM
same,TGI,[4],60.8 µM
same,TGI,[5],39 µM
same,TGI,[6],85 µM
same,TGI,[7],> 100 µM
same,TGI,[8],> 100 µM
same,TGI,[9],51.6 µM
same,TGI,[10],55.6 µM
same,TGI,[11],> 100 µM
same,TGI,[58],> 100 µM
same,TGI,[13],> 100 µM
same,TGI,[15],> 100 µM
same,TGI,[16],50.8 µM
same,TGI,[17],49.2 µM
same,TGI,[18],> 100 µM
same,TGI,[20],75.2 µM
same,TGI,[21],> 100 µM
same,TGI,[22],> 100 µM
same,TGI,[23],55 µM
same,TGI,[24],> 100 µM
same,TGI,[25],78.5 µM
same,TGI,[26],> 100 µM
same,TGI,[27],94.1 µM
same,TGI,[28],> 100 µM
same,TGI,[29],49.6 µM
same,TGI,[30],45.2 µM
same,TGI,[31],> 100 µM
same,TGI,[32],57.9 µM
same,TGI,[33],> 100 µM
same,TGI,[34],> 100 µM
same,TGI,[35],59 µM
same,TGI,[36],77.6 µM
same,TGI,[37],44.7 µM
same,TGI,[38],> 100 µM
same,TGI,[39],65.1 µM
same,TGI,[40],55.6 µM
same,TGI,[41],95.8 µM
same,TGI,[42],84.3 µM
same,TGI,[43],> 100 µM
same,TGI,[44],42.8 µM
same,TGI,[46],71.3 µM
same,TGI,[47],74.6 µM
same,TGI,[48],72.5 µM
same,TGI,[49],47.9 µM
same,TGI,[51],74.9 µM
same,TGI,[52],63.8 µM
same,TGI,[53],33.8 µM
same,TGI,[54],88.4 µM
same,TGI,[55],> 100 µM
same,TGI,[56],> 100 µM
same,TGI,[57],> 100 µM
O=C(O)CC(NC(=O)/C(=C/c1ccccc1)NC(=O)c1ccccc1)C(=O)O (stereo unspecified),TGI,[1],> 100 µM
same,TGI,[2],> 100 µM
same,TGI,[3],> 100 µM
same,TGI,[4],> 100 µM
same,TGI,[5],> 100 µM
same,TGI,[6],> 100 µM
same,TGI,[7],> 100 µM
same,TGI,[8],> 100 µM
same,TGI,[9],> 100 µM
same,TGI,[10],> 100 µM
same,TGI,[11],> 100 µM
same,TGI,[12],> 100 µM
same,TGI,[58],> 100 µM
same,TGI,[13],> 100 µM
same,TGI,[14],> 100 µM
same,TGI,[15],> 100 µM
same,TGI,[16],> 100 µM
same,TGI,[17],> 100 µM
same,TGI,[18],> 100 µM
same,TGI,[19],> 100 µM
same,TGI,[20],> 100 µM
same,TGI,[21],> 100 µM
same,TGI,[22],> 100 µM
same,TGI,[23],> 100 µM
same,TGI,[24],> 100 µM
same,TGI,[25],> 100 µM
same,TGI,[59],> 100 µM
same,TGI,[26],> 100 µM
same,TGI,[27],> 100 µM
same,TGI,[28],> 100 µM
same,TGI,[29],> 100 µM
same,TGI,[30],> 100 µM
same,TGI,[31],> 100 µM
same,TGI,[32],> 100 µM
same,TGI,[33],> 100 µM
same,TGI,[34],> 100 µM
same,TGI,[35],> 100 µM
same,TGI,[36],> 100 µM
same,TGI,[37],> 100 µM
same,TGI,[38],> 100 µM
same,TGI,[39],> 100 µM
same,TGI,[40],> 100 µM
same,TGI,[41],> 100 µM
same,TGI,[42],> 100 µM
same,TGI,[43],> 100 µM
same,TGI,[44],> 100 µM
same,TGI,[45],> 100 µM
same,TGI,[46],> 100 µM
same,TGI,[47],> 100 µM
same,TGI,[48],> 100 µM
same,TGI,[49],> 100 µM
same,TGI,[51],> 100 µM
same,TGI,[52],> 100 µM
same,TGI,[53],> 100 µM
same,TGI,[54],> 100 µM
same,TGI,[55],> 100 µM
same,TGI,[56],> 100 µM
same,TGI,[57],> 100 µM
CC12CCC(=O)N1c1cncnc1N2 (stereo unspecified),TGI,[1],> 10 µM
same,TGI,[2],> 10 µM
same,TGI,[3],> 10 µM
same,TGI,[4],> 10 µM
same,TGI,[5],> 10 µM
same,TGI,[6],> 10 µM
same,TGI,[7],> 10 µM
same,TGI,[8],> 10 µM
same,TGI,[9],> 10 µM
same,TGI,[10],> 10 µM
same,TGI,[12],> 10 µM
same,TGI,[58],> 10 µM
same,TGI,[13],> 10 µM
same,TGI,[14],> 10 µM
same,TGI,[15],> 10 µM
same,TGI,[16],> 10 µM
same,TGI,[17],> 10 µM
same,TGI,[18],> 10 µM
same,TGI,[19],> 10 µM
same,TGI,[20],> 10 µM
same,TGI,[21],> 10 µM
same,TGI,[22],> 10 µM
same,TGI,[23],> 10 µM
same,TGI,[24],> 10 µM
same,TGI,[25],> 10 µM
same,TGI,[59],> 10 µM
same,TGI,[27],> 10 µM
same,TGI,[28],> 10 µM
same,TGI,[29],> 10 µM
same,TGI,[31],> 10 µM
same,TGI,[32],> 10 µM
same,TGI,[34],> 10 µM
same,TGI,[35],> 10 µM
same,TGI,[36],> 10 µM
same,TGI,[38],> 10 µM
same,TGI,[40],> 10 µM
same,TGI,[41],> 10 µM
same,TGI,[42],> 10 µM
same,TGI,[43],> 10 µM
same,TGI,[45],> 10 µM
same,TGI,[46],> 10 µM
same,TGI,[47],> 10 µM
same,TGI,[49],> 10 µM
same,TGI,[50],> 10 µM
same,TGI,[52],> 10 µM
same,TGI,[54],> 10 µM
same,TGI,[55],> 10 µM
same,TGI,[56],> 10 µM
same,TGI,[57],> 10 µM
